Experimental data reported in US8138357B2, “Compounds and their salts specific to the PPAR receptors and the EGF receptors and their use in the medical field” (Giuliani International Limited, priority 2005, dated 2012).
Entries after “also recorded” stand apart in the source; their conditions may differ. Residues, ends and D or L forms follow the SMILES beside them. *: point of attachment. Cbz = O=C(OCc1ccccc1)*; CH2F = FC*

How the values were obtained:
[1] = tested on: DLD-1 cells; test: Cell growth by colorimetric BrdU incorporation assay, DLD-1; format: cell-based; conditions: Homo sapiens, 48 hours; for inhibition at 500 µM: 0.5 mM; for inhibition at 1000 µM: 1 mM; for inhibition at 2500 µM: 2.5 mM; for inhibition at 5000 µM: 5 mM; for inhibition at 10000 µM: 10 mM
Protocol: (§1) HT-29 and DLD-1 cells were cultured in McCoy and RPMI1640 media respectively, supplemented with 10% fetal bovine serum (FBS), 1% penicillin/streptomycin (P/S) and 50 μg/ml gentamycin. HT-115 were cultured in DMEM medium supplemented with 15% FBS and 1% P/S. Cells were maintained in a humidified incubator at 37° C., in the presence of 5% CO2.
(§2) For cell growth assays, single-cell suspensions were plated at 2×10^3 cells/well (4×10^3 cells/well for HT115) in 96-well culture dishes in medium containing 0.5% FBS and allowed to adhere. The non-adherent cells were then removed, and fresh medium containing 0.5% FBS was added into each well. Cells were cultured in the presence or absence of the specified substances. Each substance was dissolved as a 25 mM stock solution in culture medium containing 0.5% FBS, and the pH of each stock solution was adjusted to 7.4, if necessary, with NaOH. Substances were used at a final concentration ranging from 0.5 to 10 mM. Cell proliferation was determined by measuring the incorporation of 5-bromo-2′-deoxyuridine (BrdU) into DNA using a commercially available cell proliferation kit (Roche Diagnostics™, Monza, Italy). BrdU was added to the cell cultures during the last 6 hours of incubation, and the level of BrdU-positive cells was assessed after 48 h culture by enzyme-linked immunosorbent assay (ELISA).
(§3) Optical density (OD) was determined at 450 nm using an ELISA reader. Experiments were performed in triplicate and the results are reported as the mean±standard deviation (SD).

[2] = tested on: HT-29 STD cells; test: Cytotoxic effect on epithelial cells seen in the HT-29 experiments; format: cell-based, human; conditions: 30 mM, HT-29 cells
Protocol: (§4) HT-29 STD cells were transiently transfected using the Effectene™ transfection reagent (Qiagen™) according to instructions from the manufacturer. To test PPARγ activation, we performed transfection with 500 ng of a minimal promoter construct containing two copies of PPRE obtained from the cytochrome p450 4A (2XCYP) (1). The renilla luciferase plasmid ([…]) was also transfected as an internal control for monitoring transfection efficiency and for normalizing the firefly luciferase activity. Transfected cells were left for 48 hours incubation at 37° C. […] The pH of the drug solutions was adjusted to 7.4 with NaOH. Total cell extracts were prepared using the Passive Lysis Buffer (Promega™, Madison, Wis.). Luciferase activity was assayed in 20 μl of the extract using the Promega™ Dual Luciferase assay system according to the manufacturer's protocol. Transfections were assayed in triplicate in at least three separate experiments. The luciferase activity was expressed as fold of the activity obtained in cells treated with the different molecules divided by luciferase activity from non-stimulated cells.
After 24 h of culture, HT-29 STD cells were treated during 24 h with the new molecules 13, 14, 17, 26 and 31, at 30 mM. […] The pH of the drug solutions was adjusted to 7.4 with NaOH. Cells were fixed in PFA 4%, permeabilized in PBS containing 0.1% Triton X-100™ at 4° C. and then incubated with goat normal serum and blocking buffer (1% BSA in PBS) to minimize non-specific adsorption of the antibody.
After 24 h of culture, HT-29 STD cells were treated during 24 h with the new molecules 13, 14, 17, 26 and 31, at a concentration of 30 mM. […] The pH of the drug solutions was adjusted to 7.4 with NaOH. Cells undergoing apoptosis were identified by enzymatic labelling of DNA strands using a terminal transferase dUTP nick end labelling assay (TUNEL assay, Roche Diagnostics™, Meylan, France). Counts of at least 500 cells/sample were systematically performed blindly in one experiment. The results were expressed as the mean±SEM of the number of stained cells.

[3] = Solubility in drug solutions / culture medium; format: physicochemical; conditions: for precipitates in cell cultures: colon cancer cell cultures; for solubility: drug solutions for HT-29 experiments, 30 mM, pH 7.4
[4] = tested on: HT-29, HT-115 and DLD-1; test: Colon cancer cell growth by BrdU assay, three human colon carcinoma cell lines; format: cell-based; conditions: for anti-proliferative effect on colon cancer cell growth (in words): 0.5-10 mM; for anti-proliferative effect on colon cancer cell growth (in words) / inhibition at 10000 µM: 48 h; for cell death following precipitates in cell cultures: colon cancer cell cultures, Example 10; for inhibition at 10000 µM: Homo sapiens, Colon carcinoma cell, final concentration 10 mM
Protocol: For this purpose, three human colon carcinoma cell lines (i.e. HT-29, HT-115 and DLD-1) were used. These cell types were selected on the basis of the cyclooxigenase-2 (COX-2) expression. Indeed, HT-115 cells express a biologically active COX-2, HT-29 cells express a non-functional COX-2 isoform, and DLD-1 are COX-2-deficient cells.
as §1, §2, §3

[5] = tested on: DLD-1 cells; test: Cell death by Annexin V / propidium iodide FACS analysis; format: cell-based, human; conditions: 48 hours
Protocol: The effect of the compound 14 on colon epithelial cell death was also assessed. To this end, cells were cultured as indicated above for 2 days and then the fraction of Annexin V (AV) and/or propidium iodide (PI)-positive cells was evaluated using a commercially available kit (Beckmann Coulter™, Milan, Italy). To evaluate whether the effect of the compound 14 on colon epithelial cell death was dependent on caspase activity, cells were pre-incubated with z-VAD-fmk (40 μM), a pan-caspase inhibitor, for 1 hour prior to adding the compound 14 (1.5 mM). The fraction of AV and PI-positive cells was determined after 48 hours culture as indicated above.

[6] = tested on: DLD-1 cells; test: CFSE flow cytometry of cell proliferation; format: cell-based, human; conditions: 48 hour treatment, untreated 90±4%
Protocol: To assess further the effect of the compound 14 on colon epithelial cell growth, serum-starved DLD-1 cells were incubated in 0.2 μM carboxyfluorescein diacetate succinimidyl ester (CFSE) (Invitrogen™, Milan Italy) at 37° C. for 30 minutes, then extensively washed and cultured with or without the addition of the compound. After 2 days culture, CFSE fluorescence was evaluated and the proportion of cells undergoing divisions was determined, thus allowing calculation of both precursor frequency and proliferative index.

[7] = tested on: PPARγ; test: PPARγ protein expression by western blot in HT-29 cells; format: cell-based, human; conditions: 30 mM, 24 hours, HT-29, relative to β-actin
Protocol: The total proteins were obtained by cell homogenization in an extraction buffer consisting of PBS with 2% Triton™, Phenyl Methyl Sulphonyl Fluoride (PMSF) 100 mM and a classical protease inhibitor cocktail (2). The total proteins were then separated by polyacrylamide gel electrophoresis and electroblotted. Polyvinylidendifluoride (PVDF) membranes were incubated overnight with rabbit polyclonal primary antibody directed against PPARγ (dilution 1/500, TEBU, Le Perray en Yveline, France). β-actin was detected using a rabbit monoclonal primary antibody diluted at 1/10,000 (Sigma). Immunodetection with a secondary peroxidase-conjugated antibody (1/1000, Dako™, Trappes, France) and chemiluminescence was performed according to the manufacturer's protocol (ECL™, Amersham Pharmacia Biotech™, Orsay, France). Optical density values of PPARγ were given for each condition in proportion to the quantity of the internal control β-actin in the same sample (2).

[8] = biological target: T1, PPARγ (Homo sapiens, UniProt P37231); test: PPARγ activation, PPRE (2XCYP) luciferase reporter in transfected HT-29 STD cells (Example 8); format: cell-based; conditions: 30 mM, 24 hours, HT-29 STD transfected with 2XCYP
T1 construct: HT-29 STD cells were transiently transfected using the Effectene™ transfection reagent; endogenous in cells; host or cells: HT-29 STD (human colon carcinoma)
T1 sequence (P37231 1-505): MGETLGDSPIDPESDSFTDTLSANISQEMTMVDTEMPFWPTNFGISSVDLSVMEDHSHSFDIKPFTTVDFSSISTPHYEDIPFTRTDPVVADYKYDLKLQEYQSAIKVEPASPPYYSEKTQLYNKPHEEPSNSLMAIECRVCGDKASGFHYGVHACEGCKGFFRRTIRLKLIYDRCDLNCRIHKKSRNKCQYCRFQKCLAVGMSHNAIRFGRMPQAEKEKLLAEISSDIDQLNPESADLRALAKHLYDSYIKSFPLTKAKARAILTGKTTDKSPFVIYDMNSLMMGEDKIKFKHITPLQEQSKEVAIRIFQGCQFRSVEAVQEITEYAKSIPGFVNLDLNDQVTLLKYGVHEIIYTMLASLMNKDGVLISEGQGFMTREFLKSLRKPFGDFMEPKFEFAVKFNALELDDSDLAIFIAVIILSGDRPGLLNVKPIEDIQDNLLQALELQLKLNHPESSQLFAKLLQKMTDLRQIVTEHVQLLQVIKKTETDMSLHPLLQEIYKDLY
Protocol: as §4

[9] = tested on: HT-29 STD cells; test: Cell proliferation by nuclear Ki-67 immunostaining; format: cell-based; conditions: Homo sapiens, 30 mM, 24 h, compared to untreated cells, read-out: inhibition of cell proliferation (Ki-67 staining)
Protocol: After 24 h of culture, HT-29 STD cells were treated during 24 h with the new molecules 13, 14, 17, 26 and 31, at 30 mM. […] The pH of the drug solutions was adjusted to 7.4 with NaOH. Cells were fixed in PFA 4%, permeabilized in PBS containing 0.1% Triton X-100™ at 4° C. and then incubated with goat normal serum and blocking buffer (1% BSA in PBS) to minimize non-specific adsorption of the antibody. Cell proliferation was assessed by a nuclear Ki-67 staining using mouse monoclonal primary antibody directed against Ki-67 (dilution 1:50 overnight; ZYMED™ Clinisciences™, Montrouge, France). […] Nuclei were stained with Hoescht 33342 solution (0.125 mg/mL) (Sigma-Aldrich™) and visualized under a fluorescence microscope (Leica™, Bensheim, Germany). Negative controls consisted of staining with a non-specific mouse serum instead of the specific antibody. Counts of at least 500 cells/sample were systematically performed blindly in one experiment. The results were expressed as the mean±SEM of the number of stained cells.

Molecule `CC(C)N(c1ccc(O)c(C(=O)O)c1)C(C)C` [compound 38, 5-diisopropylaminosalicylic acid] has an inhibition at 500 µM [1] of 6%, an inhibition at 1000 µM [1] of 11.1% and an inhibition at 2500 µM [1] of 51.9%. For the same molecule, the inhibition at 5000 µM [1] was 85.9%, the inhibition at 10000 µM [1] was 94.5% and the “cytotoxic effect on epithelial cells” value [2] was “rapid cytotoxic effect”. The “precipitates in cell cultures” value ([3]; Example 10) was “precipitates developed”, the solubility [3] was “poor solubility” and the “anti-proliferative effect on colon cancer cell growth (in words)” value (from here on “anti-proliferative effect”) [4] was “marked anti-proliferative effect; also recorded: most powerful suppressors of colon cancer cell growth”. The “cell death following precipitates in cell cultures” value [4] was “massive cell death”.
In the case of `COC(=O)C[C@H](NC(=O)[C@H](C)NC(=O)[C@@H](NC(=O)OCc1ccccc1)C(C)C)C(=O)CF` [Z-VAD, z-VAD-fmk, reference compound] (Cbz-Val-Ala-Asp(OMe)-CH2F), the “percentage of AV/PI-positive cells in cells treated with compound 14” value ([5]; preincubation z-VAD-fmk 40 μM 1 hour, then compound 14 1.5 mM) is reported as “largely reduced”.
For `COc1ccc(N)cc1C(=O)NO` [compound 14, 5-amino-N-hydroxy-2-methoxybenzamide], the inhibition at 500 µM [1] was 22.8%, the inhibition at 1000 µM [1] was 36% and the inhibition at 2500 µM [1] was 76.5%. The inhibition at 5000 µM [1] was 90.5%, the inhibition at 10000 µM [1] was 94.1% and the “cytotoxic effect on epithelial cells” value [2] was “rapid cytotoxic effects”. For the same molecule, the “fraction of proliferating cells” value ([6]; 0.5 mM) was 48±7%, the “fraction of proliferating cells” value ([6]; 1 mM) was 21±11% and the “fraction of proliferating cells” value ([6]; 2.5 mM) was 11±6%. For the same molecule, the “cell death (AV and/or PI-positive cells)” value ([5]; 1.5 mM, p<0.01) was “significantly enhances DLD1 cell death”, the “cell death (AV and/or PI-positive cells)” value ([5]; 3 mM, p<0.001) was “significantly enhances DLD1 cell death” and the “anti-proliferative effect” value [4] was “marked anti-proliferative effect; also recorded: most powerful suppressors of colon cancer cell growth”. It also gave an inhibition at 10000 µM [4] of over 90%.
For `CCOc1ccc(N)cc1C(=O)NO` [compound 26, 5-amino-2-ethoxy-N-hydroxybenzamide], the inhibition at 500 µM [1] was 13.6%, the inhibition at 1000 µM [1] was 19% and the inhibition at 2500 µM [1] was 62%. The inhibition at 5000 µM [1] was 86%, the inhibition at 10000 µM [1] was 94.5% and the “cytotoxic effect on epithelial cells” value [2] was “rapid cytotoxic effect”. The “induction of PPARγ protein levels quantified by western blot” value [7] was 2 fold and the “anti-proliferative effect” value [4] was “marked anti-proliferative effect”.
For `CC1(C)OC(=O)c2cc(N)ccc2O1` [compound 28, 6-amino-2,2-dimethyl-4H-benzo[1,3]dioxin-4-one], the “solubility in the culture medium” value ([3]; culture medium, Example 10) was “not soluble in the culture medium”.
Work on `Nc1cc2c(c(C(=O)O)c1)OCC2` [compound 17, 5-amino-2,3-dihydrobenzofuran-7-carboxylic acid] yielded an inhibition at 500 µM [1] of 0%, an inhibition at 1000 µM [1] of 0% and an inhibition at 2500 µM [1] of 33.3%. The inhibition at 5000 µM [1] was 89.3%, the inhibition at 10000 µM [1] was 90.7% and the “reporter gene activity, factor of increase relative to untreated cells” value [8] was “two-fold; also recorded: about twice”. The solubility [3] was “poor solubility”, the “induction of PPARγ protein levels quantified by western blot” value [7] was 2 fold and the “anti-proliferative effect” value [4] was “marked anti-proliferative effect”. For the same molecule, the inhibition at 30000 µM [9] was 67 to 75%.
`COc1cc(N)ccc1C(=O)NO` [compound 13, 4-amino-N-hydroxy-2-methoxybenzamide] showed an inhibition at 500 µM [1] of 21.1%, an inhibition at 1000 µM [1] of 73% and an inhibition at 2500 µM [1] of 92.7%. For the same molecule, the inhibition at 5000 µM [1] was 96.3%, the inhibition at 10000 µM [1] was 96.4% and the “cytotoxic effect on epithelial cells” value [2] was “rapid cytotoxic effects”. For the same molecule, the “precipitates in cell cultures” value ([3]; Example 10) was “precipitates developed”, the “anti-proliferative effect” value [4] was “marked anti-proliferative effect; also recorded: most powerful suppressors of colon cancer cell growth” and the inhibition at 10000 µM [4] was over 90%. For the same molecule, the “cell death following precipitates in cell cultures” value [4] was “massive cell death”.
